The values that follow come from patent US20220160703A1, “TUMOR-SELECTIVE COMBINATION THERAPY” (The Board of Regents of The University of Texas System, priority 2019, published 2022).

The test system of data set [1] is NQO1 positive tumor cell lines MC38, TC-1 and Ag104Ld. The format is cell-based. The note with it: MC38 and B16 NQO1 cells, β-lap 3 hr, catalase 1000 U/ml, survival 48 hr later. The protocol: (FIG. 1A) NQO1 positive tumor cell lines MC38, TC-1 and Ag104Ld and NQO1 negative cell lines Panc02 and B16 grown in 48-well plates were treated with β-lap (0-8 μM) for a 3 hr followed by washing and replacing medium. Cell viability was determined by Sulforhodamine B (SRB) Assay 4 days later. […] (FIG. 1C) MC38 cells with CRISPR-based NQO1 Knockout (MC38 NQO1KO #5) planted in 96-well plates were exposed to β-lap for 3 hr and cell survival was assessed 48 hr later. […] (FIG. 1E) MC38 cells were exposed to a lethal dose of β-lap (4 μM) for indicated times, then stained with 7-AAD and Annexin V followed by flow cytometry analysis. […] (FIG. 1H) MC38 and B16 NQO1 #1 cells were exposed to β-lap for a 3 hr. Catalase (1000 U/ml) was added and cell survival was assessed 48 hr later. (FIG. 1I) C57BL/6 mice (n=5/group) were transplanted with MC38 cells and treated with β-lap (0.03 mg, 0.1 mg or 0.3 mg, intratumorally; or 25 mg/kg, i.v.) every other day for four times. […] Tumor growth was monitored twice a week.
(FIG. 8A) NQO1 expression in multiple murine tumor lines was immunoblotted as indicated. […] Drugs were removed and survival assessed 5 days later. (FIG. 8C) Relative H2O2 levels were assessed in various cells treated with β-lap for 3 h at the indicated doses using CellRox-Glo. […] (FIG. 8D) TC-1 cells exposure to β-lap for 12 h, later PARP-1 and Caspase-3 levels were analyzed by western blotting assay. […]
(FIGS. 14A-C) NQO1 cells MC38 (A) and TC-1 (B) and NQO1^− cells B16 (C) were treated for 2 h with various doses of IB-DNQ±DIC (50 μM). Drugs were removed and survival assessed 6 days later. […] (FIGS. 14E-F) Relative NAD^+ (E) or ATP (F) levels were assessed in TC-1 cells exposed to various doses of IB-DNQ for 2 h. […] Comet tail lengths in a.u. were monitored at indicated time; and DSBs quantified by γH2AX foci/nuclei using immunofluorescence at indicated time (FIG. 14H). […]
(FIG. 21A) Viability of murine cell lines following IB-DNQ treatment for 4 h. […] (FIGS. 21D-E) DNA double strand break was assessed via comet assay (FIG. 21D) and γH2AX foci/nuclei immunofluorescence (FIG. 21E). […]

The next data set has as its target NQO1 (Homo sapiens, UniProt P15559). Description: NQO1-catalyzed futile redox cycle / processing in vitro. The format is biochemical. The note with it: compared with β-lap.
Data set [2] can be described thus: Aqueous solubility of DNQ in PBS by LC-MS. The format is physicochemical. The note with it: pH 7.4 phosphate buffered saline, 30 min sonication, filtered. How it is done:
The aqueous solubility of DNQ at pH 7.4 in phosphate buffered saline (PBS) was measured by LC-MS. DNQ was sonicated for 30 minutes in PBS then undissolved solid was removed by filtration through a 0.45 μm syringe filter and the filtrate was analyzed by LC-MS (λ=275 nm, ESI-TOF in negative mode). The optimal sonication time was determined by sonicating DNQ for 1, 5, 10, and 30 minutes. While the concentration of DNQ in solution increased substantially between 1, 5, and 10 minutes, there was only a minor difference between 10 and 30 minutes. During the 30-minute sonication the water bath warmed to 45° C. (samples were cooled to room temperature before filtration). A calibration curve was generated from 1-100 μM by dissolving DNQ in methanol to a concentration of 500 μM and making dilutions of this stock in 80:20 water:methanol. The calibration curve (measure by UV absorbance) was linear over this range; 1 μM was approximately the limit of detection. […] The solution was very pale yellow.

Data set [3] can be described thus: Formulation of DNQ compounds in HPβCD. Type of data set: physicochemical. The source says: This same neutral solution of DNQ in HPβCD cannot be made directly (i.e. without pH adjustment). […] The only proton on DNQ that might reasonably be deprotonated in aqueous base is the N—H. […] The protocol for formulating DNQ compounds in HPβCD is as follows: the DNQ compound is slurried in a 20% solution of HPβCD in pH 7.4 PBS and the pH is then increased by the addition of 10 M NaOH to induce dissolution of the DNQ compound. The pH is returned to pH 7.5-8.0 by the careful addition of 1 M HCl. A 3.3 mM solution of the DNQ compound can be made by this method which is stable at least 24 hours. This represents a 30-fold increase in solubility of DNQ over PBS alone. The inventors initially chose a 20% HPβCD solution.

NQO1, sequence (P15559 whole entry, species assumed): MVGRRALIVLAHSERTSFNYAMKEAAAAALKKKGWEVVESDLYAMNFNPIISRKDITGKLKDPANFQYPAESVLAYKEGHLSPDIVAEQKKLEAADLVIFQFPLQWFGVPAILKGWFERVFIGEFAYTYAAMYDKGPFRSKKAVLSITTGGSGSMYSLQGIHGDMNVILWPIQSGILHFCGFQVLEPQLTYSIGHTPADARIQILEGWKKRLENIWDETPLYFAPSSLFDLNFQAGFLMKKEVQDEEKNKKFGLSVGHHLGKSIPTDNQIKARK

Regarding Catalase, in data set [1], the “effect of H2O2 scavenging on β-lap lethality” value was “significantly spared β-lap-mediated lethality”.

Regarding `Cc1cc(=O)[nH]c2c1C(=O)c1c(C)cc(=O)n(C)c1C2=O` [DNQ, Deoxynyboquinone], at NQO1, the “efficiency of processing by NQO1 in vitro” value is listed as “much more efficiently than β-lap”. In data set [2], the “solubility of DNQ in PBS” value stood at 115 µM. The “stability of the HPβCD solution” value in data set [3] (3.3 mM solution in 20% HPβCD) is “at least 24 hours”. Besides, the “increase in solubility over PBS alone” value in data set [3] (20% HPβCD) came to 30 fold. Besides, the “concentration of solution that can be made in HPβCD” value in data set [3] (20% HPβCD in pH 7.4 PBS, pH raised with NaOH then returned to pH 7.5-8.0) is 3300 µM. For the same compound, the “concentration of solution permitted by 40% HPβCD” value in data set [3] (40% HPβCD, concentration increases linearly with HPβCD) is 6600 µM.
